For series [1], the system named is plasma coagulation. Kind of series: Coagulation parameters in plasma (FIB, TT, PT, APTT).
Description: Plasma was collected after centrifugation at 1000 × g for 10 min at room temperature. […] The coagulation parameters, such as activated partial thromboplastin time (APTT), prothrombin time (PT), and thrombin time (TT; Chen et al., [2013]), were recorded, and each assay was performed in triplicate.
In series [2] the test system is artery-vein shunt thrombus formation. Kind of series: Artery-vein shunt thrombosis model. Format: in vivo, rat. The protocol:
Fifty male Wistar rats (250–300 g) were randomly divided into five groups: high-, middle-, and low-dose groups of P1Cm, a saline group, and a tirofiban group (n = 10 per group). The animals were treated with the same concentrations as in the previous thrombosis model, 0.15, 0.30, or 0.45 mmoL/kg of P1Cm, 0.15 mmoL/kg of tirofiban, or an equal volume of saline by tail vein injection after being anesthetized by an intraperitoneal injection of ketamine (100 mg/kg). The operation was carried out as previously reported (Sato et al., [1998]; Jing et al., [2011]). Briefly, the right carotid and left jugular veins were separated. An 8 cm silk thread was placed inside a polyethylene tube filled with heparin sodium solution (50 IU/mL). The right carotid and left jugular veins were connected with the tube. One end of the tube containing the thread was inserted into the left jugular vein, and the other end was inserted into the right carotid artery. Blood was allowed to flow from the right carotid artery to the left jugular vein through the polyethylene tube for 15 min. The tube was then removed, and the weight of the attached wet thrombus on the thread was measured immediately. The rats were sacrificed through an intravenous injection of air.

The test system of series [3] is Kunming mice. The method, then: Kunming mice (n = 6 for each group) were intravenously injected with different concentrations of P1Cm, ranging from 0.075 to 6 mmol/kg (10x IC90), or tirofiban ranging from 0.025 to 2 mmol/kg (10x IC90). Blood pressure and breath were monitored after injection, and the mesentery were observed under microscope after the animals were sacrificed. Mortality within the next 3 days was recorded.

For series [4], the system named is carotid arterial thrombosis. Kind of series: Ferric chloride-induced carotid arterial thrombosis model (CDFI, pathology). It counts as in vivo, rat. The settings on record: 0.15 mmol/kg tail vein, Wistar rats, n = 6, mean ± SD. The method, then:
Thirty male Wistar rats (250–300 g) were randomly divided into five groups: high-, middle-, and low-dose treated groups of P1Cm, a saline group, and a tirofiban group (n = 6 per group). The rats were operated on the right common carotid artery (Bird et al., [2008]). Briefly, the rat was first anesthetized by an intraperitoneal injection of ketamine (100 mg/kg). The fascia was bluntly dissected to expose the right common carotid artery immediately after a dosage of 0.15, 0.30, or 0.45 mmoL/kg of P1Cm, 0.15 mmoL/kg of tirofiban, or an equal volume of saline applied accordingly via tail vein injection. A 3 × 4 mm piece of filter paper saturated with ferric chloride (10% solution) was placed under the right carotid artery for 20 min and then removed. Thrombus size and blood flow were detected by color Doppler flow imaging (CDFI) (13 MHz phased-array transducer, LOGIQ S6 Color Doppler Ultrasonographer, GE, USA; Chua et al., [2012]). The animals were kept anesthetized during the CDFI measurements.
To obtain fresh samples immediately after measurement, the animals were sacrificed through an intravenous injection of air, and the injured carotid artery was collected for pathological examination. Carotid artery samples were fixed with 10% neutral buffered formalin and embedded in paraffin wax for routine histological analysis with hematoxylin and eosin staining. Morphometric analysis was carried out using a Leica Q500/W microscope (Leica Microsystems, Wetzlar, Germany). The antithrombosis effect was evaluated by calculating the percentage of carotid artery area covered by the thrombus (Hosokawa et al., [2011]).

Where [5] appears, read: dosage IC50 (P1Cm 0.075, tirofiban 0.025 mmol/kg), i.v., n = 6, within 3 days.
[6] abbreviates: dosage IC90, i.v., n = 6, within 3 days.

Consider two molecules from article PMC4782163, “A Novel Pentapeptide Targeting Integrin β3-Subunit Inhibits Platelet Aggregation and Its Application in Rat for Thrombosis Prevention” (Frontiers in Pharmacology, 2016).

Each structure is given as a SMILES string. Like-named read-outs stand apart in the source and are kept apart here. Where a SMILES comes first, the peptide text is derived from it.

As to `CCCCS(=O)(=O)N[C@@H](Cc1ccc(OCCCCC2CCNCC2)cc1)C(=O)O` [Tirofiban], the “Effect on coagulation parameters” value in series [1] (0.15 mM, P < 0.05) was “apparently inhibited the coagulation and affected the parameters”. The molecule further returned an FIB in series [1] (tirofiban group (0.15 mM), 5 min 37°C) of 4.23 ± 0.71 g/L. Further, the “EMW (thrombosis wet weight)” value in series [2] (0.15 mmol/kg tail vein, Wistar rats, 15 min shunt, n = 10, mean ± SD) was determined as 27.51 ± 4.03 mg. In series [2] (0.15 (mM in the source), rats), the “Decrease of thrombus weight vs saline group” value is on record as 39.92%. Also, the Mortality in series [3] (dosage 10x IC90 (P1Cm 6, tirofiban 2 mmol/kg), i.v., n = 6, within 3 days) was 2/6. Further, in series [3] (setting [5]), the Mortality came out at 0. Moreover, in series [3] (setting [6]), the Mortality was 0/6. In series [4], the “PSFV (peak systolic flow velocity)” value is 84.2 ± 3.50 cm/s, the “Thrombosis SIZE/area” value is 0.007 ± 0.001^* cm^2 and the “VSR (vascular stenosis rate)” value turned out to be 28.25 ± 5.83 %.
On to `CC[C@H](C)[C@H](N)C(=O)N[C@@H](CCCNC(=N)N)C(=O)N[C@H](C(=O)N1CCC[C@H]1C(=O)N[C@@H](CCCCN)C(=O)O)[C@@H](C)O` [Peptide P1Cm] (H-IRTPK-OH), for which the Mortality in series [3] (setting [5]) was found to be 0; in series [3] (setting [6]), 0; in series [3] (mouse, in vivo, iv) it was 0.
